Results on 15 compounds are retold here after PubChem BioAssay (NCI).

Test systems include UO-31 renal; HOP-62 NSCLC; EKVX NSCLC; K-562 leukemia; MDA-MB-231 breast; OVCAR-3 ovarian; SK-MEL-28 melanoma; SW-620 colon; SR leukemia; SK-MEL-2 melanoma.
Common to all, as to assay: NCI-60 cell line screen, 48 h

Each structure is given as a SMILES string.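 A five-concentration, 48-hour dose response in 96-well plates underlies each endpoint, interpolated linearly between surrounding concentrations. Abbreviation: GI50, concentration required for 50% inhibition of growth. Definition used: TGI = concentration required for complete inhibition of growth.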 Where a SMILES comes first, the peptide text is derived from it. The star is where a group is joined. Boc = CC(C)(C)OC(=O)* A value given as a limit tells only on which side of the number the result lay.

For the compound `CN(C)Cc1cc(N=Nc2ccc(Cl)c(Cl)c2)ccc1O`, the TGI with UO-31 renal stood at 11.9 µM; with HOP-62 NSCLC, 15.3 µM; in the assay on EKVX NSCLC, 25.6 µM; in the assay on K-562 leukemia, 14.1 µM; in the assay on MDA-MB-231 breast, 18.2 µM; in the assay on OVCAR-3 ovarian it was 19.2 µM. In addition, the TGI with SK-MEL-28 melanoma worked out at 26.5 µM; with SW-620 colon it was 23.1 µM; with SR leukemia, 28.6 µM.

With `Cc1nnc2c3c(-c4ccccc4)c(-c4ccccc4)oc3nc(N(C)C)n12`, the TGI in the assay on UO-31 renal, in the assay on EKVX NSCLC, in the assay on K-562 leukemia, with MDA-MB-231 breast, in the assay on SK-MEL-28 melanoma and in the assay with SW-620 colon was over 100 µM each time. The same compound had a TGI in the assay with SR leukemia of 67.2 µM.

As to `CCOC(=O)/C=C(/C(=O)OCC)n1cc(C)c(=O)n(Cc2cnnn2CCCCOC(C)=O)c1=O`, the TGI is 36.6 µM in the assay on UO-31 renal; over 100 µM with HOP-62 NSCLC; 49.3 µM in the assay with EKVX NSCLC; over 100 µM in the assay with K-562 leukemia; over 100 µM with MDA-MB-231 breast; 32.2 µM with OVCAR-3 ovarian. Further, the TGI in the assay with SK-MEL-28 melanoma, in the assay with SK-MEL-2 melanoma and in the assay with SW-620 colon was over 100 µM each time.

In the case of `O=[N+]([O-])C(=C(NCc1ccccc1)NCc1ccccc1)C(Cl)=C(Cl)Cl`, the TGI in the assay with UO-31 renal is over 100 µM; in the assay with HOP-62 NSCLC, over 100 µM; in the assay with EKVX NSCLC it was over 100 µM; with K-562 leukemia it was 54.2 µM; with MDA-MB-231 breast, 81.2 µM; in the assay on OVCAR-3 ovarian, 69.2 µM. The TGI in the assay with SK-MEL-28 melanoma is over 100 µM; in the assay on SW-620 colon, over 100 µM; in the assay with SR leukemia, 57.8 µM.

As to `CC(NC(=O)C(NC(=O)OC(C)(C)C)C(C)C)C(=O)NCC(=O)O` (stereo not drawn) (Boc-Val-Ala-Gly-OH; configuration not given here), the TGI in the assay with UO-31 renal, in the assay with HOP-62 NSCLC, in the assay on EKVX NSCLC, with K-562 leukemia, in the assay on OVCAR-3 ovarian and in the assay with SK-MEL-28 melanoma was over 100 µM throughout. The TGI in the assay with SK-MEL-2 melanoma, with SW-620 colon and in the assay with SR leukemia was over 100 µM throughout.

Take `NCCCCCCNc1cc(-c2cccc(OC(F)(F)F)c2)nc2ccc(N3CCCC3)cc12`: the GI50 in the assay on EKVX NSCLC is 1.64 µM; in the assay with OVCAR-3 ovarian, 1.68 µM; with SW-620 colon, 1.48 µM; in the assay with SR leukemia it was 0.349 µM. The TGI turned out to be 3.01 µM with EKVX NSCLC, 3.14 µM with OVCAR-3 ovarian, 3.02 µM in the assay with SW-620 colon and 1.73 µM in the assay on SR leukemia.

Regarding `CC(NCCS(=O)(=O)O)C(=O)O` (stereo unspecified), the TGI with UO-31 renal is over 100 µM; with HOP-62 NSCLC it was over 100 µM; with EKVX NSCLC it was over 100 µM; with K-562 leukemia it was over 100 µM; in the assay on OVCAR-3 ovarian, over 69.4 µM; in the assay with SK-MEL-28 melanoma, over 100 µM. Further, the TGI in the assay on SK-MEL-2 melanoma and in the assay with SW-620 colon was over 100 µM throughout.

In the case of `O=C(c1cccs1)N(C(=O)N1CCC(c2ccccc2)CC1)c1ccccc1`, the TGI in the assay with UO-31 renal is 76.9 µM; in the assay on HOP-62 NSCLC, 98.3 µM; with EKVX NSCLC, 52.9 µM; with K-562 leukemia, over 100 µM; in the assay with MDA-MB-231 breast, over 100 µM; in the assay on OVCAR-3 ovarian, over 100 µM. The TGI with SK-MEL-28 melanoma, in the assay with SK-MEL-2 melanoma and with SW-620 colon was over 100 µM throughout.

`CN(C)c1ccc(/C=N/NC2=N/C(=C\c3ccco3)C(=O)N2)cc1`: the TGI in the assay on UO-31 renal, in the assay on HOP-62 NSCLC, in the assay on EKVX NSCLC, in the assay with K-562 leukemia, in the assay on MDA-MB-231 breast and with OVCAR-3 ovarian was over 100 µM in each case. Besides, the TGI in the assay with SK-MEL-28 melanoma, in the assay with SK-MEL-2 melanoma and in the assay with SW-620 colon was over 100 µM in each case.

Consider `C=C[C@H]1CN2CC[C@H]1C[C@@H]2[C@@H](O)c1ccnc2ccccc12`, for which the TGI in the assay with UO-31 renal, in the assay with HOP-62 NSCLC, in the assay with EKVX NSCLC, with K-562 leukemia, in the assay on MDA-MB-231 breast and with OVCAR-3 ovarian was over 100 µM throughout. The TGI with SK-MEL-28 melanoma, with SK-MEL-2 melanoma and with SW-620 colon was over 100 µM throughout.

For the compound `CC(Nc1cc(Cl)cc(Cl)c1)c1ccncc1` (stereo unspecified), the TGI with UO-31 renal is 27.3 µM; in the assay on HOP-62 NSCLC, 33.5 µM; in the assay with EKVX NSCLC, 59.9 µM; in the assay on K-562 leukemia, over 100 µM; in the assay on OVCAR-3 ovarian, 35.7 µM; in the assay on SK-MEL-28 melanoma it was 97.8 µM. The TGI in the assay on SW-620 colon came out at 70.5 µM.

`CCCCCC(C)C[C@H]1CO[C@H](c2ccc[nH]2)N[C@H]1C(=O)OC` (stereo partly specified): the TGI in the assay with HOP-62 NSCLC, with EKVX NSCLC, in the assay with MDA-MB-231 breast, in the assay on OVCAR-3 ovarian, in the assay with SK-MEL-28 melanoma and with SK-MEL-2 melanoma was over 100 µM in each case. Besides, the TGI in the assay with SW-620 colon was over 100 µM.

For `CO[P@]1(=O)O[C@@H](c2ccccc2)[C@H](O)[C@]1(O)c1ccccc1`, the TGI in the assay with UO-31 renal, with EKVX NSCLC, in the assay on K-562 leukemia, in the assay on MDA-MB-231 breast, with OVCAR-3 ovarian and in the assay with SK-MEL-28 melanoma was over 100 µM each time. The TGI in the assay on SK-MEL-2 melanoma and in the assay on SW-620 colon was over 100 µM each time.

In the case of `COc1ccc(CNc2nc3ccccc3nc2-c2cccs2)cc1`, the TGI was 71.1 µM in the assay with UO-31 renal; over 100 µM in the assay on HOP-62 NSCLC; over 100 µM with EKVX NSCLC; over 100 µM with K-562 leukemia; over 100 µM with MDA-MB-231 breast; over 100 µM with OVCAR-3 ovarian. Further, the TGI with SK-MEL-28 melanoma, in the assay on SW-620 colon and with SR leukemia was over 100 µM each time.

For `NNC(=O)c1ccccc1NC(=O)/C(=C/c1ccccc1)NC(=O)c1ccccc1`, the TGI in the assay with UO-31 renal, with HOP-62 NSCLC, with EKVX NSCLC, in the assay with K-562 leukemia, in the assay on MDA-MB-231 breast and with OVCAR-3 ovarian was over 100 µM in each case. In addition, the TGI in the assay on SK-MEL-28 melanoma, in the assay on SK-MEL-2 melanoma and in the assay with SW-620 colon was over 100 µM in each case.
